Results on 3 compounds are retold here after patent publication US5576311A, “Cyclodextrins as suspending agents for pharmaceutical suspensions” (Pharmos Corporation, priority 1994, dated 1996).

Values after ≈ are worked out from the molar mass of the structure shown. Read-outs that look alike come from different tables or passages of the source.

For data set [1] the following is noted: 25° C.; cited from earlier work.
For another data set, the system named is glucocorticoid receptors. To be noted: cited from earlier work.
Data set [2] is described as follows: Method D: solubilization of LE by cyclodextrins, HPLC before and after centrifugation. It is filed as physicochemical. As for the experimental part: To evaluate solubilization of drugs such as LE by cyclodextrins, LE is continuously mixed with cyclodextrins in various concentrations in water for one week at room temperature. Samples of the resulting suspensions and the soluble fractions of LE are analyzed by high pressure liquid chromatography ("HPLC") before and after centrifugation at 5000 G, respectively (hereinafter referred to as "Method D"). The concentrations of LE are calculated from the area under the curve of the LE peak using known techniques.

Data set [3] is described as follows: Stability of aqueous suspensions of LE with buffering systems or ionic tonicity agents. The format is physicochemical. To be noted: accepted buffering systems or ionic tonicity agents.
Data set [4] in a line: HPLC measurement of concentration of LE in cyclodextrin suspensions after storage. The format is physicochemical.
The conditions of data set [5]: in vivo; cited from earlier work.
The conditions of data set [6]: in vivo; cited from earlier work. This is another data set of the same source.

As to `OC[C@H]1O[C@@H]2O[C@H]3[C@H](O)[C@@H](O)[C@@H](O[C@H]4[C@H](O)[C@@H](O)[C@@H](O[C@H]5[C@H](O)[C@@H](O)[C@@H](O[C@H]6[C@H](O)[C@@H](O)[C@@H](O[C@H]7[C@H](O)[C@@H](O)[C@@H](O[C@H]8[C@H](O)[C@@H](O)[C@@H](O[C@H]1[C@H](O)[C@H]2O)O[C@@H]8CO)O[C@@H]7CO)O[C@@H]6CO)O[C@@H]5CO)O[C@@H]4CO)O[C@@H]3CO` [β-Cyclodextrin, β-cyclodextrin], in data set [1], the aqueous solubility result is “about 1.8 % w/v”.

Regarding `CCOC(=O)OC1(C(=O)O)CCC2C3CCC4=CC(=O)C=CC4(C)C3C(O)CC21C` (stereo not drawn) [PJ-91], the “binding to glucocorticoid receptors” value with glucocorticoid receptors was “does not bind to glucocorticoid receptors”.

Consider `CCOC(=O)O[C@]1(C(=O)OCCl)CC[C@H]2[C@@H]3CCC4=CC(=O)C=C[C@]4(C)[C@H]3[C@@H](O)C[C@@]21C` [LE, loteprednol etabonate], for which the solubility at 168 h is 7 µg/mL (≈ 15 µM) in data set [2] (water with 0.5% hpcd, 0.5% HPCD, water, one week, room temperature, read-out: LE Solubilized); 10 µg/mL (≈ 21.4 µM) in data set [2] (water with 1.0% bcd, 1.0% BCD, water, one week, room temperature, read-out: LE Solubilized); 10 µg/mL (≈ 21.4 µM) in data set [2] (water with 1.0% hecd, 1.0% HECD, water, one week, room temperature, read-out: LE Solubilized); 5 µg/mL (≈ 10.7 µM) in data set [2] (water with 1.0% hpcd, 1.0% HPCD, water, one week, room temperature, read-out: LE Solubilized); at most 10 µg/mL in data set [2] (water with cyclodextrin, all cyclodextrins of Table 3, read-out: LE solubilized by cyclodextrins). In addition, the “obtaining stable aqueous suspensions” value in data set [3] is on record as “cannot be obtained”. The “[LE] measurement (% of label)” value in data set [4] (5 mg/ml label, BCD 1%, 23 C, 4.0 mos, 172800 min) is 106.78 % of label; in data set [4] (5 mg/ml label, HECD 1%, 23 C, 4.0 mos, 172800 min), 104.26 % of label; in data set [4] (5 mg/ml label, HPCD 0.5%, 23 C, 5.0 mos, 216000 min), 101.12 % of label; in data set [4] (5 mg/ml label, HPCD 1%, 23 C, 0.5 mos, 21600 min) it was 94.3 % of label; in data set [4] (5 mg/ml label, HPCD 1%, 23 C, 5.0 mos, 216000 min), 115.45 % of label; in data set [4] (5 mg/ml label, HPCD 1%, 37 C, 2.0 mos, 86400 min) it was 104.04 % of label. Moreover, the “[LE] measurement (% of label)” value in data set [4] (5 mg/ml label, HPCD 1%, 45 C, 2.0 mos, 86400 min) was 96.84 % of label; in data set [4] (10 mg/ml label, BCD 1%, 23 C, 4.0 mos, 172800 min), 105.7 % of label; in data set [4] (10 mg/ml label, HECD 1%, 23 C, 4.0 mos, 172800 min) it was 135.88 % of label; in data set [4] (10 mg/ml label, HPCD 0.5%, 23 C, 5.0 mos, 216000 min), 109.09 % of label; in data set [4] (10 mg/ml label, HPCD 1%, 23 C, 0.5 mos, 21600 min) it was 88.18 % of label; in data set [4] (10 mg/ml label, HPCD 1%, 23 C, 5.0 mos, 216000 min), 110.23 % of label. Also, the “concentration of LE in the suspension (in words)” value in data set [4] (Table 4 storage) was “not significantly altered”. Also, the “efficacy relative to prednisolone acetate” value in data set [5] is on record as “efficacy similar to its parent compound, namely, prednisolone acetate”. Further, the ocular anti-inflammatory activity entry in data set [5] is reported as “has ocular anti-inflammatory activity”. The “risk of steroid induced cataracts and elevation of intra-ocular pressure” value in data set [6] was “reducing the risk of steroid induced cataracts and elevation of intra-ocular pressure”.
